Drawing on patent US11116760B2 (Gilead Sciences, Inc., priority 2018, dated 2021), this text covers EC50 for 17 compounds.

In general, EC50 refers to the concentration needed to bring the measured effect to its halfway point. High values mean a less potent agent, low ones a more potent agent.

The assay addresses α4β7 integrin (Homo sapiens (Human), UniProt P13612+P26010). As to the kind of experiment: α4β7 Integrin Cell Capture Assay. The format is cell-based. Conditions: RPMI8866 cells captured on MadCAM-1 extracellular domain-coated plate.

Chain of α4β7 integrin (P13612 34-1032): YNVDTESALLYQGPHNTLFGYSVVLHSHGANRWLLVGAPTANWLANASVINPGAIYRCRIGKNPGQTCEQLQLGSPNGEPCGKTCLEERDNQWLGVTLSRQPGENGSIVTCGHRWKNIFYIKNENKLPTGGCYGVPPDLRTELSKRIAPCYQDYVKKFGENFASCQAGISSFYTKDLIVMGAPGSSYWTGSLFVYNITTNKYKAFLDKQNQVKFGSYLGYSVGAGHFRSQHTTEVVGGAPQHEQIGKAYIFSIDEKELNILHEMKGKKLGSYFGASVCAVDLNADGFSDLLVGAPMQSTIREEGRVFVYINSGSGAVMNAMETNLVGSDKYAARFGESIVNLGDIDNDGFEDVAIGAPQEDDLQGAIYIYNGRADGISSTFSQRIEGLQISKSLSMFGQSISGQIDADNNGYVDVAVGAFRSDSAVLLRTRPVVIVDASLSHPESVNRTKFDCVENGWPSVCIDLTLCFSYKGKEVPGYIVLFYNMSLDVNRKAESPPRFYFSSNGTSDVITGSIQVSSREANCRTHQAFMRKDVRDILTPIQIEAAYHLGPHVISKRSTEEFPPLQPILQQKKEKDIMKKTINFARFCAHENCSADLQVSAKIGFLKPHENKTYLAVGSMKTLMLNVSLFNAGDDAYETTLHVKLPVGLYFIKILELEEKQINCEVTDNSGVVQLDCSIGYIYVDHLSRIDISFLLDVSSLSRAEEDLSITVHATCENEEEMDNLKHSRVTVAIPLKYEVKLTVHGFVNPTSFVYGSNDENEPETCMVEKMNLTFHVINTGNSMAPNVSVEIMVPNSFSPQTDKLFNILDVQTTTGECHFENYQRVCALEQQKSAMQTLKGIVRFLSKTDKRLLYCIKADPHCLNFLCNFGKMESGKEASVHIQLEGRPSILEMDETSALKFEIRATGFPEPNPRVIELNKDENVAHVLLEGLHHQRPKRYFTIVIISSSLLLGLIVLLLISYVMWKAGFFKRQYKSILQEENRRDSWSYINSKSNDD
Chain of α4β7 integrin (P26010 20-798): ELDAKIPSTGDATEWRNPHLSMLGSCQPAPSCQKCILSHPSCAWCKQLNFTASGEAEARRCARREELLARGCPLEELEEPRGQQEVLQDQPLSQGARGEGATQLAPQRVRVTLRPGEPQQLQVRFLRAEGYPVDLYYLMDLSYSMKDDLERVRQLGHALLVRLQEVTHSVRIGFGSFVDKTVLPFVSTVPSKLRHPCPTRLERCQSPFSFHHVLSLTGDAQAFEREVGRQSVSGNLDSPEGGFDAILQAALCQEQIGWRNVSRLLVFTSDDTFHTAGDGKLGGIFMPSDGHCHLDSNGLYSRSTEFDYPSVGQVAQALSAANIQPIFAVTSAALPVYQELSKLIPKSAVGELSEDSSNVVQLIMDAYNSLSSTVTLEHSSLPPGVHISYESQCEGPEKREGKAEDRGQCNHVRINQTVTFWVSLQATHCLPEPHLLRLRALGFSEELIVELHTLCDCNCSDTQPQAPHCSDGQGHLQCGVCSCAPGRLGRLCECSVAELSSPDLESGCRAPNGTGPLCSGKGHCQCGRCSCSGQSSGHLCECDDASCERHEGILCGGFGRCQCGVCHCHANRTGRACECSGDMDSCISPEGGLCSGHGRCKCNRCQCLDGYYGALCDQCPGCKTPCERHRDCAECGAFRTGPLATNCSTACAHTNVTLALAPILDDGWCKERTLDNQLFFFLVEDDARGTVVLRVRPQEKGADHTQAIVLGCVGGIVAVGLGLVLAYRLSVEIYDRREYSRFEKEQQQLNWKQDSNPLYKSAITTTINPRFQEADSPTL

Compound `Cc1cc(N2CCOC[C@@H]2C(F)(F)F)cc(F)c1C(=O)N[C@@H](Cc1ccc(-n2c(=O)c3nccnc3n(C)c2=O)c2ncccc12)C(=O)O` [Example 404, (S)-2-(2-fluoro-6-methyl-4-((R)-3-(trifluoromethyl)morpholino)benzamido)-3-(8-(1-methyl-2,4-dioxo-1,4-dihydropteridin-3(2H)-yl)quinolin-5-yl)propanoic acid] displayed a half-maximal effective concentration (EC50) of 0.1 nM.
In turn, `Cc1cc(N2CCOC[C@@H]2C(F)(F)F)cc(F)c1C(=O)N[C@@H](Cc1ccc(-n2c(=O)c3cncnc3n(C)c2=O)c2ncccc12)C(=O)O` [Example 406, (S)-2-(2-fluoro-6-methyl-4-((R)-3-(trifluoromethyl)morpholino)benzamido)-3-(8-(1-methyl-2,4-dioxo-1,4-dihydropyrimido[4,5-d]pyrimidin-3(2H)-yl)quinolin-5-yl)propanoic acid] came in with an EC50 of 0.08 nM.
To `Cc1cc(N2CCOC[C@H]2C(F)(F)F)cc(F)c1C(=O)N[C@@H](Cc1ccc(-n2c(=O)c3ccncc3n(C)c2=O)c2ncccc12)C(=O)O` [Example 409] belongs 0.401 nM; to `Cc1nc2c(s1)c(=O)n(-c1ccc(C[C@H](NC(=O)c3c(C)cc(N4CCOC[C@@H]4C(F)(F)F)cc3F)C(=O)O)c3cccnc13)c(=O)n2C` [Example 410], 0.054 nM; to `Cc1cc(N2CCOC[C@@H]2C(F)(F)F)cc(F)c1C(=O)N[C@@H](Cc1ccc(-n2c(=O)c3c(n(C)c2=O)COCC3)c2ncccc12)C(=O)O` [Example 411], 0.06 nM.
The figure for `Cc1cc(N2CCOC[C@@H]2C(F)(F)F)cc(F)c1C(=O)N[C@@H](Cc1ccc(-n2c(=O)c3c(n(C)c2=O)CCOC3)c2ncccc12)C(=O)O` [Example 412] is 0.091 nM.
The figure for `Cc1cc(N2CCOC[C@@H]2C(F)(F)F)cc(F)c1C(=O)N[C@@H](Cc1ccc(-n2c(=O)c3c(cnn3C)n(C)c2=O)c2ncccc12)C(=O)O` [Example 413] is 0.529 nM; for `Cn1c(=O)n(-c2ccc(C[C@H](NC(=O)c3c(F)cc(N4CCOC[C@@H]4C(F)(F)F)cc3Cl)C(=O)O)c3cccnc23)c(=O)c2ccncc21` [Example 414] it is 0.048 nM.
For the compound `COc1cnc2c(=O)n(-c3ccc(C[C@H](NC(=O)c4c(C)cc(N5CCOC[C@@H]5C(F)(F)F)cc4F)C(=O)O)c4cccnc34)c(=O)n(C)c2c1` [Example 415], the EC50 is 0.091 nM.
To `Cc1cc(N2CCOC[C@@H]2C(F)(F)F)cc(F)c1C(=O)N[C@@H](Cc1ccc(-n2c(=O)c3cc(N(C)C)ncc3n(C)c2=O)c2ncccc12)C(=O)O` [Example 416] belongs 0.126 nM; to `CCn1c(=O)n(-c2ccc(C[C@H](NC(=O)c3c(C)cc(N4CCOC[C@@H]4C(F)(F)F)cc3F)C(=O)O)c3cccnc23)c(=O)c2ccncc21` [Example 417], 0.117 nM.
The figure for `Cc1cc(N2CCOC[C@@H]2C(F)(F)F)cc(F)c1C(=O)N[C@@H](Cc1ccc(-n2c(=O)c3cc(F)c(-n4ccnc4)cc3n(C)c2=O)c2ncccc12)C(=O)O` [Example 418] is 0.104 nM; for `Cc1cc(-c2nccn2CC(F)(F)F)cc(F)c1C(=O)N[C@@H](Cc1ccc(-n2c(=O)c3ccncc3n(C)c2=O)c2ncccc12)C(=O)O` [Example 419] it is 0.369 nM.
The figure for `Cc1cc(N2CCOC[C@@H]2C(F)(F)F)cc(F)c1C(=O)N[C@@H](Cc1ccc(-n2c(=O)c3cc(F)ncc3n(C)c2=O)c2ncccc12)C(=O)O` [Example 420] is 0.116 nM.
The compound `Cc1cc(N2CCOC[C@@H]2C(F)(F)F)cc(F)c1C(=O)N[C@@H](Cc1ccc(-n2c(=O)[nH]c3cnccc3c2=O)c2ncccc12)C(=O)O` [Example 421] had an EC50 of 0.191 nM.
The figure for `Cn1c(=O)n(-c2ccc(C[C@H](NC(=O)c3c(F)cc(N4CCOC[C@@H]4C(F)(F)F)cc3F)C(=O)O)c3cccnc23)c(=O)c2cc(F)c(F)cc21` [Example 422] is 0.231 nM; for `Cn1c(=O)n(-c2ccc(C[C@H](NC(=O)c3c(F)cc(N4CCOC[C@@H]4C(F)(F)F)cc3F)C(=O)O)c3cccnc23)c(=O)c2ccc(F)cc21` [Example 423] it is 0.08 nM.
